# Source: patent US4225593A, “Growth promotion” (Imperial Chemical Industries Limited, priority 1977, dated 1980)
# Assays:
# [1] = system: rumen fluid; experiment: Inhibition of methane production and shift of volatile fatty acids in incubated rumen fluid (in vitro fermentation of hay); parameters: species or system steers; details: for % methane in total gas: 39° C., 15-16 hours, control 8.37; for Ac/Bu: acetate/butyrate, control 3.92; for Ac/Pr: acetate/propionate, control 1.90; for % inhibition of methane / Ac/Bu, expressed as percentage of untreated controls / Ac/Pr, expressed as percentage of untreated controls: relative to untreated controls; for Ac/Bu, expressed as percentage of untreated controls / Ac/Pr, expressed as percentage of untreated controls: signed values
# Description: Rumen fluid is collected on a regular routine basis from two steers, which are fed on the same hay-plus-concentrate diet. Sampling time is standarised as far as possible, and the fluid from the two animals is pooled on a 50/50 basis. Large particulate matter is removed by filtering the pooled fluid through four layers of muslin cloth. The filtrate is then diluted in the ratio of one volume of filtrate to three volumes of an artificial rumen fluid (prepared as described by G. L. Bales et al., Journal of Diary Science, 1976, volume 59, page 1850, but omitting acetic acid), and the pH of the mixture is adjusted to 6.9-7.0 with saturated aqueous sodium carbonate solution. Aliquots (50 ml.) of this mixture are dispensed into 100 ml. conical flasks containing dried ground hay (0.5 g.), and each flask is used to test a test compound at a particular concentration.
# The test compound is added to the conical flask as a solution in ethanol, the flask is flushed with carbon dioxide gas, stoppered with a suba-seal, and incubated at 39° C. for 15-16 hours. After one hour, a narrow bore needle is inserted through the suba-seal to relieve the gas pressure, and the needle is withdrawn 30 minutes before the incubation is ended. Fermentation is then stopped by placing the flask in ice, and after 15 minutes cooling, the gas over the liquid is analysed for methane by gas chromatrography. The flask contents are then filtered through a previously dried and weighed sintered glass funnel, the funnel is oven-dried and, by difference, the weight of hay digested is determined. (Blank flasks containing no hay are treated similarly to determine non-cellulose residue). Three samples of the filtrate are analysed by gas chromatography for VFAs, and by comparison with the previously determined, pre-incubationlevel of VFAs, the net VFAs (acetate, propionate and butyrate) produced during the incubation is determined.
# The test process described in Example 2 was repeated, comparing aplasmomycin with Factor B and C. The following results were obtained, expressed as percentages of the values obtained in untreated controls: […]
# [2] = system: rumen metabolism of sheep; experiment: Short term effects on the rumen metabolism of sheep (rumen V.F.A. composition); type: in vivo; details: 6 hours after treatment
# Description: The rumen fermentation patterns of a group of sheep were stabilised by feeding them a standard diet of dried grass (2×500 g. per day) for some months. Six test animals were used for each inclusion level of each test compound. […] Samples of rumen fluid were collected by stomach tube from each animal 6 hours after treatment, and analysed by gas-chromatography for acetate, propionate and butyrate.
# [3] = system: Eimeria tenella; experiment: Anticoccidial activity: preventing coccidial growth in cultures of chick kidney cells inoculated with sporozites; type: cell-based; details: for anticoccidial activity (in words): cultures of chick kidney cells
# [4] = system: chick kidney cells; experiment: Toxic effects on the host cells (chick kidney cells) in the anticoccidial test; type: cell-based; details: only shows toxic effects at this concentration
# [5] = Day 4, 0.25 mg/kg, control 10.2
# [6] = Day 4, 0.25 mg/kg, control 24.0
# [7] = Day 4, 0.25 mg/kg, control 64.5
# [8] = Day 7, 0.25 mg/kg, control 10.7
# [9] = Day 7, 0.25 mg/kg, control 22.9
# [10] = Day 7, 0.25 mg/kg, control 65.6
compound,measurement,setting,value
"C[C@@H]1CC[C@@H]2O[C@]13O[B-]14O[C@H]3C(=O)O[C@H]3C[C@@H](/C=C/C[C@@H](O)C(C)(C)[C@@H]5CC[C@@H](C)[C@](O5)(O1)[C@@H](O4)C(=O)O[C@H]1C[C@@H](/C=C/C[C@@H](O)C2(C)C)O[C@@H]1C)O[C@@H]3C.[Na+] [Aplasmomycin, aplasmomycin]",% methane in total gas,[1]; 0.1 μg./ml.,7.87%
same,Ac/Bu,[1]; 0.1 μg./ml.,4.22
same,Ac/Pr,[1]; 0.1 μg./ml.,1.63
same,% methane in total gas,[1]; 0.3 μg./ml.,5.72%
same,Ac/Bu,[1]; 0.3 μg./ml.,4.75
same,Ac/Pr,[1]; 0.3 μg./ml.,1.36
same,% methane in total gas,[1]; 0.5 μg./ml.,4.87%
same,Ac/Bu,[1]; 0.5 μg./ml.,4.56
same,Ac/Pr,[1]; 0.5 μg./ml.,1.29
same,% methane in total gas,[1]; 1 μg./ml.,3.81%
same,Ac/Bu,[1]; 1 μg./ml.,4.26
same,Ac/Pr,[1]; 1 μg./ml.,1.26
same,% methane in total gas,[1]; 3 μg./ml.,2.58%
same,Ac/Bu,[1]; 3 μg./ml.,3.52
same,Ac/Pr,[1]; 3 μg./ml.,1.34
same,% inhibition of methane,[1]; 1 ppm,57%
same,"Ac/Bu, expressed as percentage of untreated controls",[1]; 1 ppm,-36 percentages
same,"Ac/Pr, expressed as percentage of untreated controls",[1]; 1 ppm,-41 percentages
same,% inhibition of methane,[1]; 3 ppm,69%
same,"Ac/Bu, expressed as percentage of untreated controls",[1]; 3 ppm,-49 percentages
same,"Ac/Pr, expressed as percentage of untreated controls",[1]; 3 ppm,-40 percentages
same,effect on the overall digestive process (in words),"[1]; rumen fluid, weight of hay digested",without at the same time depressing the overall digestive process
same,Molar % rumen V.F.A.: Butyrate,[2]; [5],9.8 Molar %
same,Molar % rumen V.F.A.: Propionate,[2]; [6],25.1 Molar %
same,Molar % rumen V.F.A.: Acetate,[2]; [7],63.7 Molar %
same,Molar % rumen V.F.A.: Butyrate,"[2]; Day 4, 0.5 mg/kg, control 10.2",9.9 Molar %
same,Molar % rumen V.F.A.: Propionate,"[2]; Day 4, 0.5 mg/kg, control 24.0",25.5 Molar %
same,Molar % rumen V.F.A.: Acetate,"[2]; Day 4, 0.5 mg/kg, control 64.5",63.4 Molar %
same,Molar % rumen V.F.A.: Butyrate,[2]; [8],9.9 Molar %
same,Molar % rumen V.F.A.: Propionate,[2]; [9],24.8 Molar %
same,Molar % rumen V.F.A.: Acetate,[2]; [10],63.8 Molar %
same,Molar % rumen V.F.A.: Butyrate,"[2]; Day 7, 0.5 mg/kg, control 10.7",9.2 Molar %
same,Molar % rumen V.F.A.: Propionate,"[2]; Day 7, 0.5 mg/kg, control 22.9",26.6 Molar %
same,Molar % rumen V.F.A.: Acetate,"[2]; Day 7, 0.5 mg/kg, control 65.6",62.6 Molar %
same,anticoccidial activity (in words),[3],show anticoccidial activity
same,concentration showing activity against Eimeria tenella,[3]; cultures of chick kidney cells inoculated with sporozites,0.037 ppm
same,concentration showing toxic effects on the host cells,[4],9 ppm
CC(=O)OC1C/C=C/C2CC(OC(=O)C3O[B-]45OC(C(=O)OC6CC(/C=C/CC(O)C(C)(C)C7CCC(C)C3(O7)O4)OC6C)C3(OC(CCC3C)C1(C)C)O5)C(C)O2 (centres unmarked) [Factor B],% inhibition of methane,[1]; 1 ppm,63%
same,"Ac/Bu, expressed as percentage of untreated controls",[1]; 1 ppm,+21 percentages
same,"Ac/Pr, expressed as percentage of untreated controls",[1]; 1 ppm,-48 percentages
same,% inhibition of methane,[1]; 3 ppm,76%
same,"Ac/Bu, expressed as percentage of untreated controls",[1]; 3 ppm,-18 percentages
same,"Ac/Pr, expressed as percentage of untreated controls",[1]; 3 ppm,-45 percentages
same,Molar % rumen V.F.A.: Butyrate,[2]; [5],11.3 Molar %
same,Molar % rumen V.F.A.: Propionate,[2]; [6],22.3 Molar %
same,Molar % rumen V.F.A.: Acetate,[2]; [7],65.1 Molar %
same,Molar % rumen V.F.A.: Butyrate,"[2]; Day 4, 0.5 mg/kg, control 10.2",11.3 Molar %
same,Molar % rumen V.F.A.: Propionate,"[2]; Day 4, 0.5 mg/kg, control 24.0",22.4 Molar %
same,Molar % rumen V.F.A.: Acetate,"[2]; Day 4, 0.5 mg/kg, control 64.5",65.0 Molar %
same,Molar % rumen V.F.A.: Butyrate,[2]; [8],11.7 Molar %
same,Molar % rumen V.F.A.: Propionate,[2]; [9],22.1 Molar %
same,Molar % rumen V.F.A.: Acetate,[2]; [10],63.5 Molar %
same,Molar % rumen V.F.A.: Butyrate,"[2]; Day 7, 0.5 mg/kg, control 10.7",8.9 Molar %
same,Molar % rumen V.F.A.: Propionate,"[2]; Day 7, 0.5 mg/kg, control 22.9",25.9 Molar %
same,Molar % rumen V.F.A.: Acetate,"[2]; Day 7, 0.5 mg/kg, control 65.6",63.5 Molar %
same,anticoccidial activity (in words),[3],show anticoccidial activity
"CC[C@@]1([C@@H]2O[C@@H]([C@H]3O[C@@](O)(CO)[C@H](C)C[C@@H]3C)C[C@@H]2C)CC[C@H]([C@]2(C)CC[C@]3(C[C@H](O)[C@@H](C)[C@@H]([C@@H](C)[C@@H](OC)[C@H](C)C(=O)O)O3)O2)O1 [Monensin, monensin, reference compound]",% methane in total gas,[1]; 0.1 μg./ml.,8.35%
same,Ac/Bu,[1]; 0.1 μg./ml.,4.22
same,Ac/Pr,[1]; 0.1 μg./ml.,1.80
same,% methane in total gas,[1]; 0.3 μg./ml.,7.53%
same,Ac/Bu,[1]; 0.3 μg./ml.,4.11
same,Ac/Pr,[1]; 0.3 μg./ml.,1.65
same,% methane in total gas,[1]; 0.5 μg./ml.,6.75%
same,Ac/Bu,[1]; 0.5 μg./ml.,4.03
same,Ac/Pr,[1]; 0.5 μg./ml.,1.61
same,% methane in total gas,[1]; 1 μg./ml.,5.62%
same,Ac/Bu,[1]; 1 μg./ml.,3.21
same,Ac/Pr,[1]; 1 μg./ml.,1.51
same,% methane in total gas,[1]; 3 μg./ml.,4.53%
same,Ac/Bu,[1]; 3 μg./ml.,3.39
same,Ac/Pr,[1]; 3 μg./ml.,1.54
same,Molar % rumen V.F.A.: Butyrate,[2]; [5],9.9 Molar %
same,Molar % rumen V.F.A.: Propionate,[2]; [6],28.5 Molar %
same,Molar % rumen V.F.A.: Acetate,[2]; [7],60.5 Molar %
same,Molar % rumen V.F.A.: Butyrate,"[2]; Day 4, 0.5 mg/kg, control 10.2",11.3 Molar %
same,Molar % rumen V.F.A.: Propionate,"[2]; Day 4, 0.5 mg/kg, control 24.0",27.8 Molar %
same,Molar % rumen V.F.A.: Acetate,"[2]; Day 4, 0.5 mg/kg, control 64.5",59.8 Molar %
same,Molar % rumen V.F.A.: Butyrate,[2]; [8],11.4 Molar %
same,Molar % rumen V.F.A.: Propionate,[2]; [9],26.1 Molar %
same,Molar % rumen V.F.A.: Butyrate,"[2]; Day 7, 0.5 mg/kg, control 10.7",12.6 Molar %
same,Molar % rumen V.F.A.: Propionate,"[2]; Day 7, 0.5 mg/kg, control 22.9",26.2 Molar %
same,Molar % rumen V.F.A.: Acetate,"[2]; Day 7, 0.5 mg/kg, control 65.6",60.2 Molar %
CC(=O)OC1C/C=C/C2CC(OC(=O)C3O[B-]45OC(C(=O)OC6CC(/C=C/CC(OC(C)=O)C(C)(C)C7CCC(C)C3(O7)O4)OC6C)C3(OC(CCC3C)C1(C)C)O5)C(C)O2 (centres unmarked) [Factor C],% inhibition of methane,[1]; 1 ppm,15%
same,"Ac/Bu, expressed as percentage of untreated controls",[1]; 1 ppm,+18 percentages
same,"Ac/Pr, expressed as percentage of untreated controls",[1]; 1 ppm,-33 percentages
same,% inhibition of methane,[1]; 3 ppm,44%
same,"Ac/Bu, expressed as percentage of untreated controls",[1]; 3 ppm,+22 percentages
same,"Ac/Pr, expressed as percentage of untreated controls",[1]; 3 ppm,-41 percentages
same,anticoccidial activity (in words),[3],show anticoccidial activity
